Patent US20170121344A1 (Siga Technologies, Inc., priority 2009, published 2017)
pEC50: −log10 of the molar value.

tested on: Dengue-2 (Strain New Guinea C); test: Viral yield assay against Dengue-2 in Vero cells; type: cell-based, Dengue virus; conditions: Dengue virus, DENV2; viral yield assay, Vero cells, MOI 0.1, 48 hours post infection; read-out: Activity (EC50 in μM) DENV-2
Method in brief: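 Virus yield, titered on Vero cells from cultures harvested at 48 h post infection, gave the EC50. Cultures were infected at MOI 0.1 with dengue-2 and treated with compound or DMSO at 37° C. DENV-1 and DENV-4 were determined similarly.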

Structure (SMILES)	EC50 [µM]
Cc1c(Cl)cccc1NC(=O)c1sc2nc(-c3ccc4c(c3)OCO4)ccc2c1N [Compound 586, 3-amino-6-(1,3-benzodioxol-5-yl)-N-(3-chloro-2-methyl-phenyl)thieno[2,3-b] pyridine-2-carboxamide]	< 5
O=C(Nc1cccc(Cl)c1)c1sc2ncccc2c1OCc1ccc(Cl)c(Cl)c1 [Compound 380, N-(3-chlorophenyl)-3-[(3,4-dichlorophenyl)methoxy]thieno[2,3-b] pyridine-2-carboxamide]	< 5
Nc1c(C(=O)Nc2ccccc2C(F)(F)F)sc2nc3c(cc12)CCCCC3 [Compound 372, 3-amino-N-(2-(trifluoromethyl)phenyl)-6,7,8,9-tetrahydro-5H-cyclohepta[b]thieno [3,2-e]pyridine-2-carboxamide]	< 5
Cc1cc(C)c2c(C)c(C(=O)Nc3ccc4c(c3)OCCO4)sc2n1 [Compound 396, N-(2,3-dihydro-1,4-benzodioxin-6-yl)-3,4,6-trimethyl-thieno[2,3-b]pyridine-2-carboxamide]	5 to 25
Nc1c(C(=O)Nc2ccccc2OC(F)(F)F)sc2nc3c(cc12)CCCCC3 [Compound 371, 3-amino-N-(2-(trifluoromethoxy)phenyl)-6,7,8,9-tetrahydro-5H-cyclohepta[b]thieno [3,2-e]pyridine-2-carboxamide]	< 5
COc1cccc(-c2ccc3c(N)c(C(=O)Nc4ccc(C)c(Cl)c4)sc3n2)c1 [Compound 544, 3-amino-N-(3-chloro-4-mehtyl-phenyl)-6-(3-methoxyphenyl)thieno[2,3-b] pyridine-2-carboxamide]	< 5
COc1cccc(-c2ccc3c(N)c(C(=O)Nc4cccc(Cl)c4Cl)sc3n2)c1 [Compound 563, 3-amino-N-(2,3-dichlorophenyl)-6-(3-methoxypnenyl)thieno[2,3-b]pyridine-2-carboxamide]	< 5
COc1ccc(Cl)cc1NC(=O)c1sc2nc(-c3cccs3)ccc2c1N [Compound 460, 3-amino-N-(5-chloro-2-methoxy-phenyl)-6-(2-thienyl)thieno[2,3-b]pyridine-2-carboxamide]	< 5
Cc1ccc(C)c(NC(=O)c2sc3nc(-c4ccc5c(c4)OCO5)ccc3c2N)c1 [Compound 588, 3-amino-6-(1,3-benzodioxol-5-yl)-N-(2,5-dimethylphenyl)thieno[2,3-b]pyridine-2-carboxamide]	< 5
Nc1c(C(=O)Nc2ccccc2F)sc2nc(-c3ccc4c(c3)OCO4)ccc12 [Compound 538, 3-amino-6-(1,3-benzodioxol-5-yl)-N-(2-fluorophenyl)thieno[2,3-b]pyridine-2-carboxamide]	< 5
Cc1cc(C)c2c(C)c(C(=O)NCC(C)C)sc2n1 [Compound 395, N-isobutyl-3,4,6-trimethyl-thieno[2,3-b] pyridine-2-carboxamide]	5 to 25
Nc1c(C(=O)Nc2ccccc2C(F)(F)F)sc2nc(-c3ccncc3)ccc12 [Compound 480, 3-amino-6-(4-pyridyl)-N-[2-(trifluoromethyl)phenyl]thieno[2,3-b] pyridine-2-carboxamide]	< 5
CC(=O)c1cnc2sc(C(=O)N(CCc3ccccc3)Cc3cccs3)c(C)c2c1 [Compound 390, 5-acetyl-3-methyl-N-phenethyl-N-(2-thienylmethyl)thieno[2,3-b]pyridine-2-carboxamide]	< 5

same assay, conditions: Dengue virus, Vero, 48 h, read-out: Activity (EC50 class) against Dengue-2 Virus in Vero cells

Structure (SMILES)	pEC50
Nc1c(C(=O)N2CCOCC2)sc2nc3c(cc12)CCCC3 [Compound 187, (3-Amino-5,6,7,8-tetrahydro-thieno[2,3-b]quinolin-2-yl)-morpholin-4-yl-methanone]	< 4.60
Nc1c(C(=O)Nc2cccc(C(F)(F)F)c2)sc2nc3c(cc12)C(=O)CCC3 [Compound 12, 3-Amino-5-oxo-5,6,7,8-tetrahydro-thieno[2,3-b]quinoline-2-carboxylic acid (3-trifluoromethyl-phenyl)-amide]	> 5.30
Cn1cnc2c(sc3nc4c(cc32)COC(C)(C)C4)c1=O [Compound 201, 2,8,8-Trimethyl-8,9-dihydro-2H,6H-7-oxa-11-thia-2,4,10-triaza-benzo[b]fluoren-1-one]	< 4.60

same assay, conditions: Dengue virus; Vero cells, MOI 0.1, harvested 48 hours post infection; read-out: Activity (EC50 class) against Dengue-2 Virus in Vero cells

Structure (SMILES)	pEC50
COCc1cc(C)nc2sc(C(=O)NCc3ccco3)c(N)c12 [Compound 209, 3-Amino-4-methoxymethyl-6-methyl-thieno[2,3-b]pyridine-2-carboxylic acid (furan-2-ylmethyl)-amide]	< 4.60
Cc1cccc(NC(=O)c2sc3nc4c(cc3c2N)CCCCC4)c1 [Compound 117, 3-Amino-6,7,8,9-tetrahydro-5H-1-thia-10-aza-cyclohepta[f]indene-2-carboxylic acid m-tolylamide]	< 4.60
CN1CCc2nc3sc(C(=O)Nc4ccc(Cl)cc4)c(N)c3c(-c3ccccc3)c2C1 [Compound 64, 3-Amino-6-methyl-4-phenyl-5,6,7,8-tetrahydro-thieno[2,3-b][1,6]naphthyridine-2-carboxylic acid (4-chloro-phenyl)-amide]	> 5.30
CC(C)N1CCc2nc3sc(C(=O)Nc4cccc(F)c4)c(N)c3cc2C1 [Compound 24, 3-Amino-6-isopropyl-5,6,7,8-tetrahydro-thieno[2,3-b][1,6]naphthyridine-2-carboxylic acid (3-fluoro-phenyl)-amide]	> 5.30
Nc1c(C(=O)N2CCCCC2)sc2nc3c(cc12)CCC3 [Compound 188, (3-Amino-6,7-dihydro-5H-cyclopenta[b]thieno[3,2-e]pyridin-2-yl)-piperidin-1-yl-methanone]	< 4.60
CC(=O)c1ccc(NC(=O)c2sc3nc(C)cc(C)c3c2N)cc1 [Compound 120, 3-Amino-4,6-dimethyl-thieno[2,3-b]pyridine-2-carboxylic acid (4-acetyl-phenyl)-amide]	< 4.60
CN1CCc2nc3sc(C(=O)Nc4ccc(Cl)cc4)c(N)c3c(-c3cccs3)c2C1 [Compound 36, 3-Amino-6-methyl-4-thiophen-2-yl-5,6,7,8-tetrahydro-thieno[2,3-b][1,6]naphthyridine-2-carboxylic acid (4-chloro-phenyl)-amide]	> 5.30
CCc1nnc(NC(=O)c2sc3nc(C)cc(COC)c3c2N)s1 [Compound 137, 3-Amino-4-methoxymethyl-6-methyl-thieno[2,3-b]pyridine-2-carboxylic acid (5-ethyl-[1,3,4]thiadiazol-2-yl)-amide]	< 4.60
CN1CCc2nc3sc(C(=O)Nc4ccc5c(c4)OCO5)c(N)c3cc2C1 [Compound 33, 3-Amino-6-methyl-5,6,7,8-tetrahydro-thieno[2,3-b][1,6]naphthyridine-2-carboxylic acid benzo[1,3]dioxol-5-ylamide]	> 5.30
CC(=O)c1cccc(NC(=O)c2sc3nc(C)cc(C)c3c2N)c1 [Compound 256, 3-Amino-4,6-dimethyl-thieno[2,3-b]pyridine-2-carboxylic acid (3-acetyl-phenyl)-amide]	< 4.60
Nc1c(C(=O)N(c2ccccc2)c2ccccc2)sc2nc3c(cc12)CCC3 [Compound 207, 3-Amino-6,7-dihydro-5H-cyclopenta[b]thieno[3,2-e]pyridine-2-carboxylic acid diphenylamide]	< 4.60
CC1(C)CC(=O)c2cc3c(N)c(C(=O)Nc4ccccc4[N+](=O)[O-])sc3nc2C1 [Compound 222, 3-Amino-7,7-dimethyl-5-oxo-5,6,7,8-tetrahydro-thieno[2,3-b]quinoline-2-carboxylic acid (2-nitro-phenyl)-amide]	< 4.60
Nc1c(C(=O)Nc2ccc(S(N)(=O)=O)cc2)sc2nc3c(cc12)CCC3 [Compound 144, 3-Amino-6,7-dihydro-5H-cyclopenta[b]thieno[3,2-e]pyridine-2-carboxylic acid (4-sulfamoyl-phenyl)-amide]	< 4.60
Nc1c(C(=O)Nc2ccc([N+](=O)[O-])cc2)sc2nc3c(cc12)CCCC3 [Compound 228, 3-Amino-5,6,7,8-tetrahydro-thieno[2,3-b]quinoline-2-carboxylic acid (4-nitro-phenyl)-amide]	< 4.60
CC(=O)Nc1ccc(NC(=O)c2sc3nc4c(cc3c2N)CCCC4)cc1 [Compound 204, 3-Amino-5,6,7,8-tetrahydro-thieno[2,3-b]quinoline-2-carboxylic acid (4-acetylamino-phenyl)-amide]	< 4.60
Cc1cc(C(F)(F)F)c2c(N)c(C(=O)Nc3ccc(I)cc3C)sc2n1 [Compound 123, 3-Amino-6-methyl-4-trifluoromethyl-thieno[2,3-b]pyridine-2-carboxylic acid (4-iodo-2-methyl-phenyl)-amide]	< 4.60
C=CCc1c(C)nc2sc(C(=O)Nc3ccc([N+](=O)[O-])cc3)c(N)c2c1C [Compound 225, 5-Allyl-3-amino-4,6-dimethyl-thieno[2,3-b]pyridine-2-carboxylic acid (4-nitro-phenyl)-amide]	< 4.60
Cc1cc(C)c2c(n1)sc1c(=O)[nH]c(C)nc12 [Compound 153, 2,7,9-Trimethyl-3H-pyrido[3′,2′:4,5]thieno[3,2-d]pyrimidin-4-one]	< 4.60
COCc1cc(C)nc2sc3c(=O)n(-c4ccc(C)cc4C)nnc3c12 [Compound 151, 3-(2,4-Dimethyl-phenyl)-9-methoxymethyl-7-methyl-3H-pyrido[3′,2′:4,5]thieno[3,2-d][1,2,3]triazin-4-one]	< 4.60
COC(=O)c1ccccc1NC(=O)c1sc2nc(N)c(C#N)cc2c1N [Compound 133, 2-[(3,6-Diamino-5-cyano-thieno[2,3-b]pyridine-2-carbonyl)-amino]-benzoic acid methyl ester]	< 4.60
NC(=O)c1sc2nc3c(c(-c4ccco4)c2c1N)CCCC3 [Compound 11, 3-Amino-4-furan-2-yl-5,6,7,8-tetrahydro-thieno[2,3-b]quinoline-2-carboxylic acid amide]	> 5.30
